From US20260132132A1, “3A,4,5,6-TETRAHYDRO-1 H-PYRAZOLO[3,4-C]PYRIDIN-7(7AH)-ONE DERIVATIVES AS FACTOR XIIA INHIBITORS” (KALVISTA PHARMACEUTICALS LIMITED, priority 2022, published 2026) come the findings set out here.

The target in this experiment is T1, Human Factor XIIa (hFXIIa) (Homo sapiens, UniProt P00748).
T1 construct: purchased Enzyme Research Laboratories
T1 sequence (P00748 373-615 limits assumed): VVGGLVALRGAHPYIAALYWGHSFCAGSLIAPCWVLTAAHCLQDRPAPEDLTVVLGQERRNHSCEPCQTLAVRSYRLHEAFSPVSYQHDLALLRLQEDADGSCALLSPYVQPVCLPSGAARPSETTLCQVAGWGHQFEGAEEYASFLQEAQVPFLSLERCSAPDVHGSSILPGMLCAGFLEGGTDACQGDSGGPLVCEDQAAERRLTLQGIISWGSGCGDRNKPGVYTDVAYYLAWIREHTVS
T1 sequence (P00748 20-372 partner limits assumed): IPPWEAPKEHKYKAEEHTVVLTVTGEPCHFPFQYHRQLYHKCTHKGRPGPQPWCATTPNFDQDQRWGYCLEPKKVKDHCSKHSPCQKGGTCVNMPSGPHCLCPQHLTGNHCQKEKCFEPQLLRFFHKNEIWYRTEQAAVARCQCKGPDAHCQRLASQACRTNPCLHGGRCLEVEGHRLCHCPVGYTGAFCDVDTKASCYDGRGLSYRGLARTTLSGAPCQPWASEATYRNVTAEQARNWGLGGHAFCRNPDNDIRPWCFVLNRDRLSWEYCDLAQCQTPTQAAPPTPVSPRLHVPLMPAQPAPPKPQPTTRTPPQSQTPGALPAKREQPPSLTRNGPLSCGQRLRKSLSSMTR
Put plainly: Determination of Human Factor XIIa (hFXIIa) inhibition, fluorogenic substrate IC50 assay. The experiment is classed as biochemical. The settings on record: fluorogenic substrate H-DPro-Phe-Arg-AFC at Km, 25° C., read-out: Human FXIIa IC50. Here is the method: Determination of Human Factor XIIa (hFXIIa) inhibition
The Km for the cleavage of the substrate by hFXIIa was determined by standard transformation of the Michaelis-Menten equation, with subsequent inhibition assays performed at substrate Km concentration.
`CC(C)(O)CN1CCc2ccc(N3CCc4c(C(=O)NCC5CC5)nn(-c5cccc(Cl)c5)c4C3=O)cc2C1` [Example 1096, 1-(3-chlorophenyl)-N-(cyclopropylmethyl)-6-(2-(2-hydroxy-2-methylpropyl)-1,2,3,4-tetrahydroisoquinolin-7-yl)-7-oxo-4,5,6,7-tetrahydro-1H-pyrazolo[3,4-c]pyridine-3-carboxamide]: the IC50 (in general, the concentration that gives 50% inhibition) lay within 300 to 1000 nM.

For the compound `COCc1nn(-c2cccc(Cl)c2)c2c1CCN(c1ccc3c(c1)C(=O)N(C)CC3)C2=O` [Example 1184, 7-(1-(3-chlorophenyl)-3-(methoxymethyl)-7-oxo-1,4,5,7-tetrahydro-6H-pyrazolo[3,4-c]pyridin-6-yl)-2-methyl-3,4-dihydroisoquinolin-1(2H)-one], the IC50 fell in the range of 1000 to 3000 nM.

On to `CN1CCc2ccc(N3CCc4c(C(=O)NC[C@H]5C[C@H](O)C5)nn(-c5cccc(Cl)c5)c4C3=O)cc2C1=O` [Example 1274, 1-(3-chlorophenyl)-N-(((1r,3r)-3-hydroxycyclobutyl)methyl)-6-(2-methyl-1-oxo-1,2,3,4-tetrahydroisoquinolin-7-yl)-7-oxo-4,5,6,7-tetrahydro-1H-pyrazolo[3,4-c]pyridine-3-carboxamide], for which the half-inhibitory concentration (IC50) lay in the range of 300 to 1000 nM.

As for `CCOCCN1CCc2ccc(N3CCc4c(C(=O)NCC5CC5)nn(-c5cccc(Cl)c5)c4C3=O)cc2C1` [Example 1061, 1-(3-chlorophenyl)-N-(cyclopropylmethyl)-6-(2-(2-ethoxyethyl)-1,2,3,4-tetrahydroisoquinolin-7-yl)-7-oxo-4,5,6,7-tetrahydro-1H-pyrazolo[3,4-c]pyridine-3-carboxamide], the IC50 lay within 100 to 300 nM.

For the compound `COC1CN(CCO)Cc2cc(N3CCc4c(C(=O)NCC5CC5)nn(-c5cccc(Cl)c5)c4C3=O)ccc21` (stereo not drawn) [Example 1191, 1-(3-chlorophenyl)-N-(cyclopropylmethyl)-6-(2-(2-hydroxyethyl)-4-methoxy-1,2,3,4-tetrahydroisoquinolin-7-yl)-7-oxo-4,5,6,7-tetrahydro-1H-pyrazolo[3,4-c]pyridine-3-carboxamide], the IC50 lay in the range of 300 to 1000 nM.

As for `CS(=O)(=O)NCCN1CCc2ccc(N3CCc4c(C(=O)NCC5CC5)nn(-c5cccc(Cl)c5)c4C3=O)cc2C1` [Example 1083, 1-(3-chlorophenyl)-N-(cyclopropylmethyl)-6-(2-(2-(methylsulfonamido)ethyl)-1,2,3,4-tetrahydroisoquinolin-7-yl)-7-oxo-4,5,6,7-tetrahydro-1H-pyrazolo[3,4-c]pyridine-3-carboxamide], the IC50 lay within 100 to 300 nM.

Take `O=C1CC[C@@H](CN2CCc3ccc(N4CCc5c(C(=O)NCC6CC6)nn(-c6cccc(Cl)c6)c5C4=O)cc3C2)N1` [Example 1124, (S)-1-(3-chlorophenyl)-N-(cyclopropylmethyl)-7-oxo-6-(2-((5-oxopyrrolidin-2-yl)methyl)-1,2,3,4-tetrahydroisoquinolin-7-yl)-4,5,6,7-tetrahydro-1H-pyrazolo[3,4-c]pyridine-3-carboxamide]: the IC50 is 300 to 1000 nM.

For the compound `O=C(NCC1CC1)c1nn(-c2cccc(Cl)c2)c2c1CCN(c1ccc3c(c1)CN(CC(F)(F)F)CC3)C2=O` [Example 1071, 1-(3-chlorophenyl)-N-(cyclopropylmethyl)-7-oxo-6-(2-(2,2,2-trifluoroethyl)-1,2,3,4-tetrahydroisoquinolin-7-yl)-4,5,6,7-tetrahydro-1H-pyrazolo[3,4-c]pyridine-3-carboxamide], the half-maximal inhibitory concentration (IC50) is 1000 to 3000 nM.

Regarding `CN1CCc2ccc(N3CCc4c(C(=O)O)nn(-c5cccc(Cl)c5)c4C3=O)cc2C1=O` [Example 1182, 1-(3-chlorophenyl)-6-(2-methyl-1-oxo-1,2,3,4-tetrahydroisoquinolin-7-yl)-7-oxo-4,5,6,7-tetrahydro-1H-pyrazolo[3,4-c]pyridine-3-carboxylic acid], the concentration for half-maximal inhibition (IC50) is 3000 to 10000 nM.
